≈ marks a conversion by molar mass, not a printed value. Like-named read-outs stand apart in the source and are kept apart here.
What was measured:
[1] = HTChem stab assay (chemical stability in buffer pH2, pH4 and pH7 vs DMSO reference); assay type: physicochemical
Description: HTChem stab assay was used to assess the chemical stability of the compounds. 72 h stirring at rt in a buffer pH2, pH4 and pH7 vs a reference DMSO solution. HTChem stab assay is based on the handbook of Pharmaceutical Stress Testing, Predicting Drug Degradation, second edition, authors Baertschi, Alsante, Reed ISBN 978-143980179-6.
Compounds were plated (1 μl 10 mM DMSO stock in 96 well plate (DMSO control+3 pH conditions), one plate per condition).
200 μL of respectively DMSO, Buffer/DMSO mix pH2, Buffer/DMSO mix pH4 and Buffer/DMSO mix pH7 was added.
After 72 h shaking (300 rpm) at room temperature the samples were analysed by LC/UV/MS. Chromatograms of samples (stability conditions) were compared with the chromatograms of control sample (DMSO). Extra peaks were flagged and identified by mass spectrometry. Sample purity (reference included) were reported.
• pH3 buffer: For 11; weigh 4.14 g NaH2PO4·H2O, add 600 ml H2O, add H3PO4 to pH3, add H2O to 1000 ml. Filter over 0.2 μm and store at 4° C. Expires after 30 days. • pH6 buffer: For 1 l; weigh 4.14 g NaH2PO4·H2O, add 600 ml H2O, add 1N NaOH to pH6, add H2O to 1000 ml. Filter over […] and store at 4° C. Expires after 30 days.
• pH2 Buffer/DMSO (StabSolvent): mix 2 parts of HCl 0.1N with 1 part of DMSO • pH4 Buffer/DMSO (StabSolvent): mix 2 parts of buffer pH3 with 1 part of DMSO • pH7 Buffer/DMSO (StabSolvent): mix 2 parts of buffer pH6 with 1 part of DMSO measure pH prior to use.
Instrument: Acquity UPLC; Column: Acquity HSS T3, 50 mm length×2.1 mm i.d., 1.8 μm particle size. Detectors: PDA (250-350 nm) and SQD2 (90-1500m/z). Mobile phase A: 0.1% Formic acid in water; Mobile phase B: 0.1% Formic acid in Acetonitrile.
Injection volume: 5 μL, flow rate 0.6 mL/min.
Data processing including peak integration and identification was done with Waters OpenLynx software.

[2] = tested on: Mycobacterium tuberculosis strain H37Rv; assay: Test 2: MIC determination against M. tuberculosis, resazurin fluorescence; assay type: cell-based; settings: Test 2, M. tuberculosis H37Rv; for MIC90: read-out: Bacterial activity MIC90; for IC50: read-out: Bacterial activity pMIC50 (converted)
[3] = Metabolic stability in liver microsomes (intrinsic clearance); assay type: in vitro ADME
How it was run: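 Compound (typically 1 μM) incubated at 37° C with liver microsomes (0.5 mg/ml protein) of selected species, 1 mM NADPH, 1 mM MgCl2, 0.1 M phosphate pH 7.4, sampled 0–60 min. Parent remaining measured by LC-MS/MS; t1/2 from log-linear slope, then Clint in μl/min/mg protein.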

[4] = tested on: Salmonella typhimurium Ames II Mixed Strains (TA7001-TA7006) and TA98; assay: Genotoxicity assay (AmesIIb mutagenicity test); assay type: cell-based; further: key: an AmesIIb score of 1 shows no genotoxicity signals
Source text: The aim is to evaluate compounds (and/or their metabolites) for their ability to induce reverse mutations in a gene of histidine-requiring Salmonella typhimurium strains to produce histidine-independent strains of these bacteria, in the absence and in the presence of a mammalian metabolic activation system.
Point mutations were made in the histidine (His) operon in Salmonella typhimurium, rendering the bacteria incapable of producing histidine. These single base substitutions are positioned at strategic points within the His gene, resulting in his-organisms that cannot grow unless histidine is supplied. When a mutagenic event occurs, base substitutions within the His gene then cause the reversion of the his-Ames II™ strains to His.
A chemical's mutagenic potential is assessed by exposing these his-organisms to varying concentrations of chemical and selecting for the reversion event. Medium lacking histidine is used for this selection which allows only those cells that have undergone the his- to His reversion to survive and grow.
The assay may be performed using a kit and instructions from Xenometric. The two strains provided in the Xenometric kit are the Ames II™ Mixed Strains and TA98. The Ames II™ Mixed Strains contains an equimolar mixture of the Ames II™ TA7001-TA7006 strains. Individually, these strains are designed to revert by only one specific base-pair substitution out of six possible changes. Thus, when mixed, all six base substitution mutations can be represented in one culture. This kit also contains TA98 for the detection of frameshift mutations.

[5] = buffer pH2/DMSO, 72 h stirring at rt
[6] = buffer pH4/DMSO, 72 h stirring at rt
[7] = buffer pH7/DMSO, 72 h stirring at rt
[8] = reference DMSO solution, 72 h stirring at rt
[9] = mouse, microsomes, 1 µM, pH 7.4
[10] = Mycobacterium tuberculosis, H37RV
[11] = mouse, microsomes, pH 7.4, Metabolic Stability Half life (mouse, min.)
[12] = mouse, microsomes, pH 7.4, mouse liver microsomes, read-out: Metabolic Stability (liver microsome intrinsic clearance) Clearance (mouse, μl/min./mg protein)

SMILES	Chemical stability data, Buffer pH2 [1, 5] [%]	Chemical stability data, Buffer pH4 [1, 6] [%]	Chemical stability data, Buffer pH7 [1, 7] [%]	Chemical stability data, Vehicle DMSO [1, 8] [%]	Bacterial activity pMIC50 [2]	MIC90 [2] [µM]	Metabolic Stability (liver microsome intrinsic clearance) Clearance (mouse, μl/min./mg protein) ([3]; mouse liver microsomes) [μl/min./mg protein]	Metabolic Stability Half life (mouse, min.) ([3]; mouse liver microsomes) [h]	GeneTox AmesIIb Score [4]	Chemical stability data, Vehicle DMSO ([1]; 72 h, 50 µM) [%]	Chemical stability data, Buffer pH2 ([1]; 72 h, 50 µM, pH 2) [%]	Chemical stability data, Buffer pH4 ([1]; 72 h, 50 µM, pH 4) [%]	Chemical stability data, Buffer pH7 ([1]; 72 h, 50 µM, pH 7) [%]	GeneTox AmesIIb Score ([4]; Salmonella typhimurium)	MIC90 [2, 10] [µM]	IC50 [2, 10] [pM]	half-life at 1 µM [3, 11] [h]	microsomal CLint at 1 µM [3, 12] [µL/min/mg]	also measured
CCc1nc2n(c1C(=O)NCc1ccc(-c3nc4n(n3)CCC(C(F)(F)F)C4)cc1)CCCC2 (racemic) [Compound 13ab]	100	100	100	100	8.067	0.024 (≈ 0.0113 µg/mL)	15.5	1.49	1										
O=C(NCc1ccc(-c2nc3n(n2)CCC(C(F)(F)F)C3)cc1)c1c(C(F)F)nc2ccccn12 (racemic) [Compound 14ab]	100	100	100	100	7.877	0.036 (≈ 0.0177 µg/mL)	<7.7	>3	1										
CCc1nc2ncccn2c1C(=O)NCc1ccc(-c2nc3n(n2)CCC(C(F)(F)F)C3)cc1 (racemic) [Compound 17ab]	100	97	100	100	7.526	0.105 (≈ 0.0493 µg/mL)	<7.7	>3	1										
O=C(NCc1ccc(-c2cn3c(n2)CC(C(F)(F)F)CC3)cc1)c1c(C(F)(F)F)nc2ccccn12 (racemic) [Compound 18ab]	98	100	100	98	7.431	0.142 (≈ 0.0721 µg/mL)	11.1	2.08	1										
CCc1nc2ncc(C)cn2c1C(=O)NCc1ccc(-c2cn3c(n2)CC(C(F)(F)F)CC3)cc1 (single isomer, unassigned) [Compound 3a]					8.532	0.008 (≈ 0.00386 µg/mL)	7.78			100	100	100	100	1					Metabolic Stability (liver microsome intrinsic clearance) Clearance (human, μl/min./mg protein) ([3]; human liver microsomes): 13.4 μl/min./mg protein; Metabolic Stability Half life (human, min.) ([3]; human, microsomes, 1 µM, pH 7.4): 1.72 h; Metabolic Stability Half life (mouse, min.) [3, 9]: 2.97 h
CCc1nc2nc(C)ccn2c1C(=O)NCc1ccc(-c2nc3n(n2)CCC(C(F)(F)F)C3)cc1 (single isomer, unassigned) [Compound 5a]										100	100	100	100	1	0.06 (≈ 0.029 µg/mL)	21600	> 3	< 7.7	
CCc1nc2ncc(Cl)cn2c1C(=O)NCc1ccc(-c2nc3n(n2)CCC(C(F)(F)F)C3)cc1 (single isomer, unassigned) [Compound 10a]					<6.301					100	84	76	97	1			> 3	< 7.7	
CCc1nc2ncc(Cl)cn2c1C(=O)NCc1ccc(-c2nc3n(n2)CCC(C(F)(F)F)C3)cc1 (single isomer, unassigned) [Compound 10b]					8.207		11.1			96	81	71	92	1	0.021 (≈ 0.0106 µg/mL)				Metabolic Stability Half life (mouse, min.) [3, 9]: 2.08 h
CCc1nc2ncc(C)cn2c1C(=O)NCc1ccc(-c2nc3n(n2)CCC(C(F)(F)F)C3)cc1 (stereo not shown) [Compound 1ab]										100	100	100	100	1	0.028 (≈ 0.0135 µg/mL)	9550	> 3	< 7.7	half-life at 1 µM ([3]; human, microsomes, pH 7.4, Metabolic Stability Half life (human, min.)): > 3 h; microsomal CLint at 1 µM ([3]; human, microsomes, pH 7.4, human liver microsomes, read-out: Metabolic Stability (liver microsome intrinsic clearance) Clearance (human, μl/min./mg protein)): < 7.7 µL/min/mg
CCc1nc2ncc(C)cn2c1C(=O)NCc1ccc(-c2nc3n(n2)CCC(C)C3)cc1 (stereo not shown) [Compound 4ab]										98	98	98	98	1	0.017 (≈ 0.0073 µg/mL)	7050	2.75	8.38	
CCc1nc2nc(C)ccn2c1C(=O)NCc1ccc(-c2nc3n(n2)CCC(C(F)(F)F)C3)cc1 (stereo not shown) [Compound 5ab]										94	95	96	96	1	0.023 (≈ 0.0111 µg/mL)	8280	> 3	< 7.7	
CCc1nc2ncc(OC)cn2c1C(=O)NCc1ccc(-c2nc3n(n2)CCC(C(F)(F)F)C3)cc1 (stereo not shown) [Compound 6ab]										93	100	100	100	1	0.007 (≈ 0.0035 µg/mL)	3480	1.62	14.2	
Cc1cnc2nc(C3CC3)c(C(=O)NCc3ccc(-c4nc5n(n4)CCC(C(F)(F)F)C5)cc3)n2c1 (stereo not shown) [Compound 8ab]										100	100	100	100	1	0.018 (≈ 0.00892 µg/mL)	7110			
